According to patent publication US9073982B2, “Targets for regulation of angiogenesis” (The University of North Carolina at Chapel Hill, priority 2008, dated 2015):
Entries after “also recorded” stand apart in the source; their conditions may differ.

What was measured:
[1] = test system: 2H11 cells; experiment: 2H11 endothelial MATRIGEL tube formation assay; type: cell-based, mouse; conditions: for inhibition of SFRP2 stimulated endothelial tube formation: SFRP2 stimulated 2H11 cells; for inhibition of VEGF stimulated endothelial tube formation: VEGF stimulated 2H11 cells
Text: The ability for tacrolimus to inhibit SFRP2 and VEGF stimulated 2H11 endothelial tube formation in vitro was studied in a MATRIGEL tube formation assay.

[2] = test system: SVR angiosarcoma cells; experiment: SVR angiosarcoma cell tube formation assay; type: cell-based, mouse; conditions: for inhibition of SVR tube formation by sera compared to control mouse sera: sera at 1:100 dilution
Procedure: (§1) The tube formation properties of SFRP2 on MEC cells were evaluated using an endothelial cell tube formation assay. ECMATRIX (Chemicon) was thawed, diluted and solidified in a 96 well plate according to the manufactures instructions. 1×10^4 cells/well in 150 μl of DMEM (cellgro) with 10% FBS (HyClone) and a concentration range (3-3000 pM) of SFRP2 (US Biologicals) were seeded onto the matrix and returned to 37° C., 5% CO2 for 8 hours. Images were acquired using the Nikon Eclipse TS100 microscope at 4× magnification with a Nikon CoolPix 995 digital camera. Results were quantified by counting the number of branch point. To evaluate whether tacrolimus inhibits SFRP2 induced tube formation, MEC cells were treated as above with SFRP2 30 nM with and without tacrolimus (1 μM-100 uM) for 8 hours and branch points were determined as described above. To evaluate whether inhibitors of SFRP2-mediated angiogenesis would inhibit the growth of SVR tumor cells, SVR cells were treated with tacrolimus (1 μM-100 μM) or with a rabbit polyclonal antibody to SFRP-2 (H-140) (Santa Cruz Biotechnology, Santa Cruz, Calif., catalogue 4 sc-13940) in the tube formation assay.
As a further test of the contribution of SFRP2 to endothelial tube formation, it was evaluated whether loss of function of SFRP2 would inhibit SVR angiosarcoma tube formation. This was studied two different ways, first with a blocking antibody to SFRP2, and then using siRNA to SFRP2. SVR cells were plated in MATRIGEL in a tube formation assay and treated with a polyclonal antibody to SFRP2. […] After 72 h of transfection using LIPOFECTAMINE™ RNAiMAX Transfection reagent (Invitrogen) according to the manufacturer's protocol, cells were harvested and ready for Western blot analyses and tube formation assay.
Monoclonal antibodies for the epitope corresponding to AbB (AA202-AA220) were prepared. […] The angiosarcoma cells were suspended in 150 μl of antibody containing growth media for 90 different samples and control media, After 6 hours, pictures were taken and the number of branch points for each well was counted. […]

[3] = test system: MMTV-neu transgenic mouse tumors; experiment: MMTV-neu transgenic mouse tumor growth; type: in vivo
Procedure: In a second study, MMTV-neu transgenic mice were treated with tacrolimus 3 mg/kg/daily or no treatment. Treatment began when tumors were palpable and continued for 21 days. Tumor volumes were monitored with serial ultrasounds. A two-tailed T-test was used to determine the difference between growth rates of the tumors between treated and non-treated tumors.

[4] = test system: SVR angiosarcoma xenografts; experiment: SVR angiosarcoma xenografts in nude mice; type: in vivo; conditions: for growth of SVR angiosarcoma xenografts: nude mice
Procedure: To test the ability of tacrolimus to inhibit angiogenesis in vivo, SVR mouse angiosarcoma cells (0.5×10^6) were injected into the flank of 6-week-old nude male mice obtained from Charles River Breeding Laboratories. Treatment was initiated on the day after inoculation. Mice received 3 mg/kg/daily tacrolimus or vehicle control suspended in 20% Intralipid (Baxter Healthcare, Deerfield, Ill.) in a total volume of 0.3 ml intraperitoneally (i.p.), and were treated daily for 19 days. Serial caliper measurements of perpendicular diameters were used to calculate tumor volume using the following formula: (shortest diameter)^2×(longest diameter)×0.52. Differences in tumor volume over time were analyzed with a two way ANOVA. A P value of ≦0.05 indicated a statistically significant reduction in tumor growth of the treated group compared to the control group. […] Treatment with tacrolimus reduced mean tumor volume by 46% at day 19 (589±129 mm^3 vs 315±93 mm^3, two-way ANOVA, p=0.04, FIG. 26).
The ability of a monoclonal antibody recognizing SFRP2 to inhibit tumor growth in vivo was tested in a nude mouse assay. The SFRP2 MAb subclone 80.8.6 was first tested with SVR angiosarcoma xenografts. Six week old nude mice were injected with 1×10^6 SVR angiosarcoma cells. The day after injections treated mice received SFRP2 MAb(80.8.6) 4 mg/kg i.v. twice weekly (n=5), and controls received equal volumes of buffer. At day 14 there was a 65% decrease in tumor volume (*p=0.03, two-tailed student's t-test) (FIG. 34).

[5] = test system: mouse endothelial cells (MEC); experiment: Endothelial cell tube formation assay, MEC cells; type: cell-based; conditions: for inhibition of SFRP2 induced tube formation: SFRP2 7 nM or 30 nM, tacrolimus 1 μM-100 uM, 8 hours
Procedure: The tube formation properties of SFRP2 on mouse endothelial cells (MEC) cells were evaluated using an endothelial cell tube formation assay. ECMATRIX (Chemicon) was thawed, diluted and solidified in a 96 well plate according to the manufacturer's instructions. 1×10^4 cells/well in 150 μl of DMEM (celigro) with 10% FBS (HyClone) and a concentration range (7-7000 pM) of SFRP2 (US Biologicals) were seeded onto the matrix and returned to 37° C., 5% CO2 for 8 hours. Images were acquired using the Nikon Eclipse TS100 microscope at 4× magnification with a Nikon CoolPix 995 digital camera. Results were quantified by counting the number of branch points.
(§2) To evaluate whether tacrolimus inhibits SFRP2 induced tube formation, MEC cells were treated as above with SFRP2 7 nM with and without tacrolimus 100 uM for 8 hours and branch points were determined as described above. To evaluate whether tacrolimus reversed established tubes, cells were incubated with SFRP2 7 nM for 8 hours and then BSA or tacrolimus 100 μM was added to SFRP2 treated cells for an additional 4 hours, and then the number of branch points were counted. […] Tacrolimus was not cytotoxic to MEC cells, as only 5% of tacrolimus-treated cells took up trypan blue dye (data not shown).
as §1

[6] = test system: MEC cells; experiment: Trypan blue uptake (cytotoxicity) in MEC cells; type: cell-based, mouse; conditions: tacrolimus-treated MEC cells
Procedure: as §2

[7] = test system: MDA-MB-231 breast cancer xenografts; experiment: MDA-MB-231 breast cancer xenografts in nude mice; type: in vivo; conditions: 4 mg/kg i.v. twice weekly
Procedure: The SFRP2 MAb subclone 80.8.6 was next tested with MDA-MB-231 breast cancer xenografts. Six week old female nude mice were injected with 1×10^6 MDA-MB-231 cells. After 4 weeks, when tumors were palpable, mice received SFRP2 MAb (80.8.6) 4 mg/kg i.v. twice weekly (n=12), and controls received equal volumes of buffer. At day 8 the median tumor volume for controls was 1200 mm^3, and for SFRP2 MAb treated mice was 580 mm^3, which represents a 52% decrease in tumor volume (p=0.04, two-tailed student's t-test).

[8] = tacrolimus 3 mg/kg/daily i.p., day 19

**Q.** How did the “inhibition of SFRP2 stimulated endothelial tube formation” value [1] turn out when `C=CC[C@@H]1/C=C(\C)C[C@H](C)C[C@H](OC)[C@H]2O[C@@](O)(C(=O)C(=O)N3CCCC[C@H]3C(=O)O[C@H](/C(C)=C/[C@@H]3CC[C@@H](O)[C@H](OC)C3)[C@H](C)[C@@H](O)CC1=O)[C@H](C)C[C@@H]2OC` [tacrolimus] was run?
**A.** inhibits SFRP2-induced mouse endothelial cell tube formation

**Q.** What about the “inhibition of SFRP2 stimulated endothelial tube formation” value ([1]; listed as Tacrolimus) of the same molecule?
**A.** inhibited endothelial tube formation

**Q.** And the “inhibition of VEGF stimulated endothelial tube formation” value [1]?
**A.** inhibits VEGF-induced mouse endothelial cell tube formation

**Q.** What about the “inhibition of VEGF stimulated endothelial tube formation” value ([1]; listed as Tacrolimus) of the same molecule?
**A.** inhibited endothelial tube formation

**Q.** And the “inhibition of SVR angiosarcoma tube formation” value [2]?
**A.** inhibited by tacrolimus; also recorded: inhibits tube formation in SVR angiosarcoma cells

**Q.** And the “growth rate of MMTV-neu tumors” value ([3]; mouse, in vivo)?
**A.** inhibits the growth rate

**Q.** And the “signs of toxicity (diarrhea, infection, lethargy, weight loss)” value ([3]; tacrolimus 3 mg/kg/daily, 21 days)?
**A.** no signs of toxicity

**Q.** What about the “reduction in tumor growth rate” value ([3]; tacrolimus 3 mg/kg/daily, day 21) of the same molecule?
**A.** 59%

**Q.** What about the “growth of SVR angiosarcoma xenografts” value [4] of the same molecule?
**A.** effective at suppressing the growth; also recorded: inhibits the growth

**Q.** And the “signs of toxicity (diarrhea, infection, lethargy, weight loss)” value ([4]; tacrolimus 3 mg/kg/daily i.p., 19 days)?
**A.** no signs of toxicity

**Q.** And the mean tumor volume [4, 8]?
**A.** 315±93 mm^3

**Q.** And the “reduction of mean tumor volume” value [4, 8]?
**A.** 46%

**Q.** What about the inhibition at 1 µM ([5]; Mus musculus, Endothelial cell, tacrolimus 1 μM, SFRP2 30 nM, read-out: inhibition of SFRP2 induced tube formation) of the same molecule?
**A.** 64%

**Q.** What about the “reversal of established SFRP2-induced tubes” value ([5]; SFRP2 7 nM 8 hours, then tacrolimus 100 μM for 4 hours) of the same molecule?
**A.** reversed SFRP2-induced tube formation; also recorded: reverses SFRP2-induced mouse endothelial cell tube formation

**Q.** And the “inhibition of SFRP2 induced tube formation” value [5]?
**A.** inhibits SFRP2-induced mouse endothelial cell tube formation; also recorded: inhibits tube formation in SFRP2-induced MEC cells

**Q.** What about the “inhibition of SFRP2 induced tube formation” value ([5]; listed as Tacrolimus) of the same molecule?
**A.** inhibited SFRP2 induced tube formation

**Q.** And the “treated cells that took up trypan blue dye” value [6]?
**A.** 5%

**Q.** With “AbC: sera from mouse immunized against SFRP2 epitope amino acids AA270-AA295 (ITSVKRWQKGQREFKRISRSIRKLQC)” as the molecule, how does the “inhibition of SVR tube formation by sera compared to control mouse sera” value [2] read?
**A.** inhibited SVR tube formation; also recorded: greatest inhibition

**Q.** Which “inhibition of SVR tube formation by sera compared to control mouse sera” value [2] does the source give for “AbB: sera from mouse immunized against SFRP2 epitope amino acids AA202-AA220 (EITYINRDTKIILETKSKTC)” here?
**A.** inhibited SVR tube formation; also recorded: greatest inhibition

B1: SFRP2 MAb (80.8.6): monoclonal antibody produced by hybridoma cell line UNC 68-80 (subclone 80.8.6), ATCC PTA-11762; VH SEQ ID NO:13, VL SEQ ID NO:15 (antibody, V domains shown)
VH: QVQLQQPGAELVQPGASVMLSCKASGFTFTRYWWHWVRQTPGRGLEWIGRIDPNSGTTRFIEKFKTKATLTVDKPSSTAYMHLSSLTSEDSAVYYCARWGPYYGYAMDYWGPGTSVTVSS
VL: QIVLTQSPAIMSASPGQKVTITCSASSSVTYMHWYQQKLGSSPKLWIYDTSRLAPGSPARFSGSGSGTSYSLTISSMETEDAASYFCHQWSTYPPTFGTGTKLEIQ
modifications: Heavy chain variable region sequence; Light chain variable region sequence
**Q.** Which “toxicity or weight loss” value [7] does the source give for B1 here?
**A.** No toxicity or weight loss

**Q.** What about the “decrease in tumor volume” value ([7]; day 8) of the same molecule?
**A.** 52%

**Q.** And the median tumor volume ([7]; day 8)?
**A.** 580 mm^3

**Q.** What about the “toxicity or weight loss” value ([4]; 4 mg/kg i.v. twice weekly) of the same molecule?
**A.** No toxicity or weight loss

**Q.** What about the “decrease in tumor volume” value ([4]; 4 mg/kg i.v. twice weekly, day 14) of the same molecule?
**A.** 65%

**Q.** And the “growth of SVR angiosarcoma xenografts” value [4]?
**A.** inhibits the growth
